“And” between values parts separate entries of the source, which are not always exact repeats. Equal values may be shown once. Blank lines part the entries; values can stand above or below the compound they belong to.
Key:
[1] = system: HT-29 (human colon adenocarcinoma); test: Inhibition of cell proliferation (MTT), HT-29; type: cell-based; conditions: Homo sapiens, 48 h of treatment (footnote), average ±SD of three experiments
purified tubulin = test: Critical concentration (CrC) for the assembly of purified tubulin in GAB; type: biochemical; conditions: compound 27.5 μM, tubulin 25 μM, glycerol (GAB) and GTP assembly buffer; control 7.9 ± 1.2
Method: The effect on the self-assembly of tubulin was determined by measuring the critical concentration (CrC).

A-549 cells = test: Cell cycle distribution by flow cytometry; type: cell-based, human
How it was run: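 A-549 cells were harvested, fixed in cold 70% ethanol (30 min, −20 °C), then stained with 50 µg/mL propidium iodide plus 100 µg/mL RNase A in PBS for 20 min at room temperature in the dark. Flow cytometry used 488 nm excitation and 620 nm emission, giving the percentage of cells in G2/M.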

c-Myc gene = c-Myc gene expression by RT-qPCR in HT-29 cells; type: cell-based, human
Method: The effect on the expression of VEGF, hTERT and c-Myc genes has been studied for CA-4 and its derivatives that show selectivity indexes higher than 0.9 on the HT-29 cell line. The studied derivatives, together with the concentrations to which they have been tested, are CA-4 (15 μM); 4.1 (Gly, 5 μM); 4.5 (L-Pro, 25 μM); 4.9 (L-Met, 25 μM); 6.2 (D-Leu, 25 μM); 6.3 (D-Phe, 25 μM); 6.4 (D-Pro, 25 μM) and 6.5 (D-Ser, 10 μM). The expression of the genes was determined by RT-qPCR methodology, as described in the Materials and Methods section.
As regards AmCA-4 derivatives, the effect on the expression of the VEGF, hTERT and c-Myc genes has been studied on those that show IC50 in the low nanomolar range on the HT-29 cell line and/or on compounds whose selectivity indexes with respect to this cell line are higher than 1. The studied compounds, together with the concentrations to which they have been tested, are: CA-4 (15 μM), AmCA-4 (15 nM), 7.1 (7 nM), 7.2 (1.5 nM), 7.3 (4 nM), 7.4 (15 nM), 7.5 (2 nM), 7.7 (7 nM), 7.8 (15 nM), 7.9 (30 nM), 8.1 (7 nM), 8.2 (3 nM), 8.3 (10 nM), 8.4 (1.5 nM), 8.5 (4 nM), 8.7 (7 nM), 8.8 (3 nM) and 8.9 (4 nM).
HT-29 cells at 70–80% confluence were collected, and 1.5 × 10^5 cells were placed in a six-well plate in 1.5 mL of the medium. After 24 h, cells were incubated with the corresponding compounds for 48 h. Cells were collected, and the total cellular RNA from the HT-29 cells was isolated using an Ambion RNA Extraction Kit, according to the manufacturer’s instructions. The cDNA was synthesized by MMLV-RT with […] of extracted RNA and oligo(dT)15, according to the manufacturer’s instructions. Genes were amplified by a thermal cycler and StepOnePlus™ TaqMan® probes. TaqMan® Gene Expression Master Mix Fast, containing the appropriate buffer for the amplification conditions, dNTPs, thermostable DNA polymerase enzyme and a passive reference probe, was used. To amplify each of the genes, the predesigned primers sold by Life Technologies TaqMan® Gene Expression Assays Hs99999903-m1 (β-actin), Hs00900055-m1 (VEGF), Hs00972646-m1 (hTERT) and Hs00153408-m1 (c-Myc) were used.

[2] = A-549, 24 h, concentration per compound as in Tables 6 and 7
[3] = Homo sapiens; HT-29, 48 h, 25 μM; control 100
[4] = Homo sapiens, HT-29, 48 h, 25 μM, control 100

SMILES: COc1ccc(/C=C\c2cc(OC)c(OC)c(OC)c2)cc1N [AmCA-4, 3′-aminocombretastatin A-4]
- IC50 ([1]; HT-29, 48 h, Table 2): 0.022 ± 0.001 µM
- CrC (critical concentration) (purified tubulin): 23 ± 3 µM
- G0/G1 (A-549 cells; A-549, 24 h, 0.125 µM): 26 ± 1%
- G2/M (A-549 cells; A-549, 24 h, 0.125 µM): 59 ± 2%
- S (A-549 cells; A-549, 24 h, 0.125 µM): 15 ± 2%
- mrna remaining at 0.015 µM (c-Myc gene; Homo sapiens; HT-29, 48 h, 15 nM; control 100): 58%

SMILES: COc1ccc(/C=C\c2cc(OC)c(OC)c(OC)c2)cc1O [CA-4, combretastatin A-4]
- IC50 ([1]; HT-29, Table 1): 4.2 ± 0.5 µM
- CrC (critical concentration) (purified tubulin): 21.5 µM and 21.5 ± 0.8 µM
- cells accumulated in the G2/M phase (A-549 cells; 24 h): 60%
- G0/G1 (A-549 cells; A-549, 24 h, 0.05 μM): 25 ± 1%
- G2/M (A-549 cells; A-549, 24 h, 0.05 μM): 60 ± 2%
- S (A-549 cells; A-549, 24 h, 0.05 μM): 15 ± 1%
- mrna remaining at 15 µM (c-Myc gene; Homo sapiens; HT-29, 48 h, 15 μM; control (DMSO) 100; normalized to β-actin): 35%

SMILES: COc1ccc(/C=C\c2cc(OC)c(OC)c(OC)c2)cc1OCC(=O)NCC(=O)O [Compound 4.1]
- IC50 ([1]; HT-29, 48 h, Table 1): 5 ± 1 µM
- CrC (critical concentration) (purified tubulin): 9.3 ± 0.4 µM
- G0/G1 (A-549 cells; A-549, 24 h, 75 μM): 68%
- G2/M (A-549 cells; A-549, 24 h, 75 μM): 20%
- S (A-549 cells; A-549, 24 h, 75 μM): 12%
- Effect on the cell cycle (A-549 cells; [2]): do not exert any significant effect on the cells
- mrna remaining at 5 µM (c-Myc gene; Homo sapiens, HT-29, 48 h, 5 μM, control 100): 62%

- IC50 ([1]; HT-29, Table 1): 12 ± 5 µM
SMILES: COc1ccc(/C=C\c2cc(OC)c(OC)c(OC)c2)cc1OCC(=O)N[C@H](C(=O)O)C(C)C [Compound 4.2]
- CrC (critical concentration) (purified tubulin): 9.3 ± 0.3 µM
- G0/G1 (A-549 cells; A-549, 24 h, 50 μM): 17 ± 2%
- G2/M (A-549 cells; A-549, 24 h, 50 μM): 67 ± 4%
- S (A-549 cells; A-549, 24 h, 50 μM): 16 ± 3%
- cells accumulated in the G2/M phase (A-549 cells; A-549, 24 h, concentration per compound as in Tables 6 and 7, control 14%): 50–70%
- mrna remaining at 25 µM (c-Myc gene; [3]): 71%

SMILES: COc1ccc(/C=C\c2cc(OC)c(OC)c(OC)c2)cc1OCC(=O)N[C@@H](CCSC)C(=O)O [Compound 4.9]
- IC50 ([1]; HT-29, 48 h, Table 1): 32 ± 6 µM
- CrC (critical concentration) (purified tubulin): 8.6 ± 0.4 µM
- G0/G1 (A-549 cells; A-549, 24 h, 75 μM): 76%
- G2/M (A-549 cells; A-549, 24 h, 75 μM): 13%
- S (A-549 cells; A-549, 24 h, 75 μM): 11%
- Effect on the cell cycle (A-549 cells; [2]): do not exert any significant effect on the cells
- downregulation of c-Myc gene expression (c-Myc gene; HT-29, 48 h; discussion; concentration per compound): more than 55%
- mrna remaining at 25 µM (c-Myc gene; [4]): 37%

SMILES: COc1ccc(/C=C\c2cc(OC)c(OC)c(OC)c2)cc1OCC(=O)N[C@H](CC(C)C)C(=O)O [Compound 6.2]
- IC50 ([1]; HT-29, 48 h, Table 1): 47 ± 9 µM
- CrC (critical concentration) (purified tubulin): 11 ± 3 µM
- G0/G1 (A-549 cells; A-549, 24 h, 75 μM): 85 ± 1%
- G2/M (A-549 cells; A-549, 24 h, 75 μM): 12 ± 1%
- S (A-549 cells; A-549, 24 h, 75 μM): 3 ± 2%
- Effect on the cell cycle (A-549 cells; [2]): do not exert any significant effect on the cells
- mrna remaining at 25 µM (c-Myc gene; [4]): 68%

- IC50 ([1]; HT-29, Table 1): 27 ± 5 µM
SMILES: COc1ccc(/C=C\c2cc(OC)c(OC)c(OC)c2)cc1OCC(=O)N[C@H](Cc1ccccc1)C(=O)O [Compound 6.3]
- CrC (critical concentration) (purified tubulin): 9.2 ± 0.4 µM
- G0/G1 (A-549 cells; A-549, 24 h, 75 μM): 74 ± 3%
- G2/M (A-549 cells; A-549, 24 h, 75 μM): 14 ± 2%
- S (A-549 cells; A-549, 24 h, 75 μM): 11 ± 6%
- Effect on the cell cycle (A-549 cells; [2]): do not exert any significant effect on the cells
- mrna remaining at 25 µM (c-Myc gene; [3]): 55%

SMILES: COc1ccc(/C=C\c2cc(OC)c(OC)c(OC)c2)cc1OCC(=O)N1CCC[C@@H]1C(=O)O [Compound 6.4]
- IC50 ([1]; HT-29, 48 h, Table 1): 50 ± 11 µM
- CrC (critical concentration) (purified tubulin): 10 ± 3 µM
- G0/G1 (A-549 cells; A-549, 24 h, 75 μM): 71%
- G2/M (A-549 cells; A-549, 24 h, 75 μM): 15%
- S (A-549 cells; A-549, 24 h, 75 μM): 14%
- Effect on the cell cycle (A-549 cells; [2]): do not exert any significant effect on the cells
- mrna remaining at 25 µM (c-Myc gene; [4]): 81%

SMILES: COc1ccc(/C=C\c2cc(OC)c(OC)c(OC)c2)cc1OCC(=O)N[C@H](CO)C(=O)O [Compound 6.5]
- IC50 ([1]; HT-29, 48 h, Table 1): 13 ± 1 µM
- CrC (critical concentration) (purified tubulin): 9.25 ± 0.16 µM
- G0/G1 (A-549 cells; A-549, 24 h, 75 μM): 64%
- G2/M (A-549 cells; A-549, 24 h, 75 μM): 18%
- S (A-549 cells; A-549, 24 h, 75 μM): 18%
- Effect on the cell cycle (A-549 cells; [2]): do not exert any significant effect on the cells
- mrna remaining at 10 µM (c-Myc gene; Homo sapiens, HT-29, 48 h, 10 μM, control 100): 94%

Source: paper PMC7037732, “Synthesis of Combretastatin A-4 and 3′-Aminocombretastatin A-4 derivatives with Aminoacid Containing Pendants and Study of their Interaction with Tubulin and as Downregulators of the VEGF, hTERT and c-Myc Gene Expression” (Molecules, 2020)
